10 compounds from publication PMC6983046, “Meroterpenoids from the Fungus Ganoderma sinensis and First Absolute Configuration Clarification of Zizhine H” (Molecules, 2019) can be followed below.

Bounds are passed on as bounds.

Series [1] concerns A549: human lung cancer cells. Put plainly: Cell viability (CCK8) assay, A549. In kind it is cell-based. The note with it: for IC50: CCK8, 48 h. The protocol: (§1) All cell lines were purchased from the Cell Bank of China Science Academy (Shanghai, China) and maintained in Dulbecco’s Modified Eagle Medium (DMEM) supplemented with 10% fetal bovine serum and 100 U/mL penicillin-streptomycin, and incubated at 37 °C in an atmosphere of 5% CO2. Cell viability was evaluated by the CCK8 assay kit (Dojindo Laboratories, Tokyo, Japan) according to the manufacturer’s instructions. Exponentially growing cells were seeded at 2–8 × 10^3 cells per well in 96-well culture plates for 24 h. Cells were exposed to increasing concentrations (0–80 μM) of 4, 5, 6, or 5-FU for 48 h. The equal volume of DMSO was used as the solvent control. CCK8 solution (10 μL) was added to each well and incubated for another 1–4 h. Light absorbance of the solution was measured at 450 nm (Epoch 2; BioTek Instruments, Inc. Winooski, VT, USA). The IC50 values were calculated using the GraphPad prism 7 and analyzed by fitting a curve using nonlinear regression. page 53: Figure S63. The calculated and the experimental ECD spectra of 5 and 6. Figure S64. Cytotoxic effects of compound-4,compound-5, compound-6 and 5-FU on human cancer cells (A, B, C) and normal cells (D) Cells were treated with various concentrations of compound-4,compound-5, compound-6 and 5-FU for 48 h. Cytotoxic effect of the compounds was determined by CCK8 assay. Percentages of viable cells were calculated by comparing treated and solvent control cells. Data are the mean ± S.D. of three replicates. […]

Series [2] deals with KYSE30: human esophageal cancer cells. Put plainly: Cell viability (CCK8) assay, KYSE30. In kind it is cell-based. The following applies: for cytotoxic activity (cells sensitive to compound), KYSE30: result in words. The protocol: as §1
Series [3] in a line: Cell viability (CCK8) assay, HDF normal cells. The following applies: human, HDF cells (normal human embryonic lung fibroblasts), CCK8, 48 h. In kind it is cell-based, human. The protocol:
as §1

For series [4], the system named is BGC-823: human gastric cancer cells. Kind of series: Cell viability (CCK8) assay, BGC-823. Format: cell-based. The following applies: BGC-823 cells; for IC50: CCK8, 48 h; for cytotoxic activity (cells sensitive to compound), BGC-823: result in words. The protocol: as §1
Series [5] has as its system HDF: normal human embryonic lung fibroblasts. Put plainly: Cell viability (CCK8) assay, HDF normal cells. In kind it is cell-based. The note with it: CCK8, 48 h. How it is done:
as §1

Setting [6] is: Homo sapiens, KYSE-30, CCK8, 48 h.

For `COC(=O)/C(=C\C(=O)c1cc(O)ccc1O)CC/C=C(\CO)CC/C=C(\C)COC(=O)/C=C/c1ccc(O)cc1` [Compound 4, (2Z,5Z,9E)-methyl 2-(2-(2,5-dihydroxyphenyl)-2-oxoethylidene)-6-(hydroxymethyl)-11-(((E)-3-(4-hydroxyphenyl)acryloyl)oxy)-10-methylundeca-5,9-dienoate], the IC50 in series [1] was 72.1 ± 8.7 µM; in series [1] (Homo sapiens, A549, 48 h) it was 63.4 to 80.8 µM; in series [2] (setting [6]), over 160 µM; in series [4] (Homo sapiens) it was over 160 µM. Also, the “cytotoxic activity (cells sensitive to compound), A549” value in series [1] (result in words) was “sensitive”. This compound had an IC50 at 48 h in series [3] of over 160 µM.

On to `C/C(=C\CC/C(=C/CC/C(=C/Cc1cc(O)ccc1O)C(=O)O)CO)COC(=O)/C=C/c1ccc(O)cc1` [Compound 3, (2Z,5Z,9E)-2-(2-(2,5-dihydroxyphenyl)ethylidene)-6-(hydroxymethyl)-11-(((E)-3-(4-hydroxyphenyl)acryloyl)oxy)-10-methylundeca-5,9-dienoic acid], for which the concentration for half-maximal inhibition (IC50) in series [1] (Homo sapiens, A549, 48 h) is over 160 µM; in series [2] (setting [6]) it was over 160 µM; in series [4] (Homo sapiens), over 160 µM. The compound further registered a half-maximal inhibitory concentration (IC50) at 48 h in series [3] of over 160 µM.

In the case of `C/C(=C\C[C@H](O)/C(=C/CCC1=C[C@@H](c2cc(O)ccc2O)OC1=O)CO)COC(=O)/C=C/c1ccc(O)cc1` [Compound 6, (E)-(S,2E,6E)-9-((S)-5-(2,5-dihydroxyphenyl)-2-oxo-2,5-dihydrofuran-3-yl)-5-hydroxy-6-(hydroxymethyl)-2-methylnona-2,6-dien-1-yl 3-(4-hydroxyphenyl)acrylate], the concentration for half-maximal inhibition (IC50) in series [1] (Homo sapiens, A549, 48 h) is over 160 µM; in series [2] (setting [6]) it was 85.4 ± 2.82 µM; in series [4] (Homo sapiens), 64.25 ± 0.37 µM. Also, in series [2], the “cytotoxic activity (cells sensitive to compound), KYSE30” value is on record as “sensitive”. In series [3], this compound came in with an IC50 at 48 h of over 160 µM. Moreover, the “cytotoxic activity (cells sensitive to compound), BGC-823” value in series [4] is “sensitive”.

Take `CC(=CCCC1=CCC[C@@](CC(=O)c2cc(O)ccc2O)(C(=O)O)OC1)CO` [(−)-1, (R,E)-2-(2-(2,5-dihydroxyphenyl)-2-oxoethyl)-6-(5-hydroxy-4-methylpent-3-en-1-yl)-2,3,4,7-tetrahydrooxepine-2-carboxylic acid]: the IC50 is over 160 µM in series [1] (Homo sapiens, A549, 48 h); over 160 µM in series [2] (setting [6]); over 160 µM in series [4] (Homo sapiens). This compound registered a 50% inhibitory concentration (IC50) at 48 h in series [3] of over 160 µM.

For the compound `CC(=CCCC1=CCC[C@](CC(=O)c2cc(O)ccc2O)(C(=O)O)OC1)CO` [(+)-1, (S,E)-2-(2-(2,5-dihydroxyphenyl)-2-oxoethyl)-6-(5-hydroxy-4-methylpent-3-en-1-yl)-2,3,4,7-tetrahydrooxepine-2-carboxylic acid], the IC50 in series [1] (Homo sapiens, A549, 48 h) was over 160 µM; in series [2] (setting [6]), over 160 µM; in series [4] (Homo sapiens) it was over 160 µM. Further, in series [3], the IC50 at 48 h was over 160 µM.

In the case of `O=c1[nH]cc(F)c(=O)[nH]1` [Compound 5-FU, reference compound], the half-maximal inhibitory concentration (IC50) turned out to be 35 ± 2.42 µM in series [1]; 8.43 ± 0.19 µM in series [2] (CCK8, 48 h); 51.1 ± 2.43 µM in series [5]; 37.7 ± 1.87 µM in series [4].

Regarding `C/C(=C\CCC1=CCC[C@](CC(=O)c2cc(O)ccc2O)(C(=O)O)OC1)COC(=O)/C=C/c1ccc(O)cc1` [(+)-2, (S)-2-(2-(2,5-dihydroxyphenyl)-2-oxoethyl)-6-((E)-5-(((E)-3-(4-hydroxyphenyl)acryloyl)oxy)-4-methylpent-3-en-1-yl)-2,3,4,7-tetrahydrooxepine-2-carboxylic acid], the 50% inhibitory concentration (IC50) in series [1] (Homo sapiens, A549, 48 h) is over 160 µM; in series [2] (setting [6]), over 160 µM; in series [4] (Homo sapiens), over 160 µM. Further, the IC50 at 48 h in series [3] was over 160 µM.

As for `C/C(=C\C[C@H](O)/C(=C/CCC1=C[C@H](c2cc(O)ccc2O)OC1=O)CO)COC(=O)/C=C/c1ccc(O)cc1` [Compound 5, (E)-(S,2E,6E)-9-((R)-5-(2,5-dihydroxyphenyl)-2-oxo-2,5-dihydrofuran-3-yl)-5-hydroxy-6-(hydroxymethyl)-2-methylnona-2,6-dien-1-yl 3-(4-hydroxyphenyl)acrylate], the half-inhibitory concentration (IC50) in series [1] (Homo sapiens, A549, 48 h) was over 160 µM; in series [2] (setting [6]), 76.3 ± 1.93 µM; in series [4] (Homo sapiens), 59.2 ± 2.73 µM. The “cytotoxic activity (cells sensitive to compound), KYSE30” value in series [2] is “sensitive”. Also, the 50% inhibitory concentration (IC50) at 48 h in series [3] was over 160 µM. The “cytotoxic activity (cells sensitive to compound), BGC-823” value in series [4] is recorded as “sensitive”.

Regarding `C/C(=C/CC/C(=C/C(=O)c1cc(O)ccc1O)C(=O)O)CO` [Compound 7, (2Z,5Z)-2-(2-(2,5-dihydroxyphenyl)-2-oxoethylidene)-7-hydroxy-6-methylhept-5-enoic acid], the IC50 in series [1] (Homo sapiens, A549, 48 h) was over 160 µM; in series [2] (setting [6]), over 160 µM; in series [4] (Homo sapiens), over 160 µM. This compound registered a half-maximal inhibitory concentration (IC50) at 48 h in series [3] of over 160 µM.

For the compound `C/C(=C\CCC1=CCC[C@@](CC(=O)c2cc(O)ccc2O)(C(=O)O)OC1)COC(=O)/C=C/c1ccc(O)cc1` [(−)-2, (R)-2-(2-(2,5-dihydroxyphenyl)-2-oxoethyl)-6-((E)-5-(((E)-3-(4-hydroxyphenyl)acryloyl)oxy)-4-methylpent-3-en-1-yl)-2,3,4,7-tetrahydrooxepine-2-carboxylic acid], the IC50 in series [1] (Homo sapiens, A549, 48 h) was over 160 µM; in series [2] (setting [6]), over 160 µM; in series [4] (Homo sapiens) it was over 160 µM. Besides, in series [3], the IC50 at 48 h is over 160 µM.
